# According to patent US20260041093A1, “Ionic Derivatives Of Aromatic Carboxylic Acid For Use As Plant Stimulants, Method For Stimulating Plants And Use Of These Derivatives For Manufacturing Compositions For Stimulating Plants” (FUNDACJA UNIWERSYTETU IM. ADAMA MICKIEWICZA W POZNANIU, priority 2022, published 2026):
# Read-outs that look alike come from different tables or passages of the source.
# How the values were obtained:
# [1] = test system: powdery mildew fungus; experiment: Protection of tomato against powdery mildew by spraying (Example 35); type: in vivo, Lycopersicon Esculentum Mill tomato; details: 40 mg/l, sprayed twice; 2 weeks after pathogen inoculation
# Description: […] The control was tomato plants watered only with water. […] The suspension was prepared from culture on solid medium. Protection against biotic stress was evaluated by comparing the area of leaves affected by infection.
# Proceeded in the way as described in Example 34, with the difference that plants were sprayed and not watered.
# [2] = test system: Pseudomonas syringae pv. Tomato (Pst); details: watered twice, Pst 10^5, 2 weeks after infection
# Description: Tobacco plants at the stage of 3 developed leaves were watered twice, at a weekly interval, with a solution of test substances 1-11 at concentrations of 10, 40, 80 mg/L. The control was tobacco plants watered with water only. One week after the second treatment, a suspension of Pst bacteria at a concentration of 10^5 was spotted into the leaves using an insulin syringe (without a needle). The suspension was prepared from a two-day culture of Pst on solid medium. Protection against biotic stress was evaluated by the proliferation of bacteria in the leaves at the insertion site and the formation of a necrotic spot, compared to the control.
# We proceeded as in Example 30, with the effectiveness of protection against biotic stress tested against bacterial cell concentrations raised to about 10^6.
# [3] = test system: powdery mildew fungus; type: in vivo, tomato; details: 80 mg/L, watered twice; 2 weeks after infection
# Description: Tomato plants, at the stage of the first pair of developed true leaves, were watered twice with a solution of substance 1-32 at a concentration of 80 mg/L, at a weekly interval. The control was tomato plants watered only with water. […] The suspension was prepared from culture on solid medium. Protection against biotic stress was evaluated by comparing the area of leaves affected by infection.
# [4] = test system: TMV; experiment: Protection of tobacco against TMV infected 3 weeks after the last treatment (Example 27); type: in vivo; details: infected with TMV 3 weeks after the last treatment
# Description: They proceeded as in Example 24, using substances 1-4 at concentrations of 10, 40 and 80 mg/L for treatment, with treated and control plants divided into 3 batches and their leaves infected with the virus 1, 2 and 3 weeks after the last treatment, respectively. […] A similar effect occurred with spraying.
# [5] = test system: Brome Mosaic Virus (BMV); experiment: Protection of barley against Brome Mosaic Virus infection by watering (Examples 28 and 29); type: in vivo; details: 80 mg/L, watered twice; 2 weeks after infection
# [6] = test system: TMV; experiment: Protection of tobacco against TMV, single spray, comparison with BION (Example 26); type: in vivo, Nicotiana tabacum cv. Xanthi; details: sprayed once, infected a week later
# Description: Tobacco plants (Nicotiana tabacum) cv. Xanthi at the stage of three developed leaves were sprayed once with solutions of substance 1-5 or BION™ at concentrations of 10, 40, 80 mg/L. A week later, they were mechanically infected with TMV by rubbing the leaves with a square soaked in a suspension of purified virus, with a concentration of about 2 μg/ml. The level of protection against the effects of biotic stress was evaluated by comparing the number of necrotic spots caused by TMV on the leaves of plants treated with substances 1-5 and BION™ and control plants.
# A reduction in the number of necrotic spots indicates protection from the effects of the biotic agent on the plant.
compound,measurement,setting,value
C[N+](C)(C)CCO.O=C([O-])c1c(Br)ccc(Cl)c1O [choline 3-chloro-6-bromosalicylate],Reduction in necrotic spots (white patches) compared to control,[1],49%
same,% reduction in necrotic spots compared to control,[2]; 10 mg/L,24%
same,% reduction in necrotic spots compared to control,[2]; 40 mg/L,29%
same,% reduction in necrotic spots compared to control,[2]; 80 mg/L,40%
CCOc1ccccc1C(=O)[O-].C[N+](C)(C)CCO [choline 2-ethoxybenzoate],% reduction in necrotic spots compared to control,[2]; 10 mg/L,56%
same,% reduction in necrotic spots compared to control,[2]; 40 mg/L,60%
same,% reduction in necrotic spots compared to control,[2]; 80 mg/L,82%
same,% reduction in necrotic spots compared to control,[3],43%
2-ethoxyethyl(trimethyl)ammonium 3-chlorosalicylate,% reduction in necrotic spots compared to control,[4]; 10 mg/L,26%
same,% reduction in necrotic spots compared to control,[4]; 40 mg/L,26%
same,% reduction in necrotic spots compared to control,[4]; 80 mg/L,30%
same,% reduction in necrotic spots compared to control,[3],55%
C[N+](C)(C)CCO.O=C([O-])c1cc(Br)ccc1O [choline 5-bromosalicylate],% reduction in necrotic spots compared to control,[5],69%
same,% reduction in necrotic spots compared to control,[3],79%
C[N+](C)(C)CCO.O=C([O-])c1cc(F)ccc1O [choline 5-fluorosalicylate],% reduction in necrotic spots compared to control,[5],88%
same,% reduction in necrotic spots compared to control,[3],54%
2-iodoethyl(trimethyl)ammonium 3-chlorosalicylate,% reduction in necrotic spots compared to control,[5],64%
same,% reduction in necrotic spots compared to control,[3],47%
ethyl(trimethyl)ammonium 3-chlorosalicylate,% reduction in necrotic spots compared to control,[4]; 10 mg/L,25%
same,% reduction in necrotic spots compared to control,[4]; 40 mg/L,46%
same,% reduction in necrotic spots compared to control,[4]; 80 mg/L,65%
same,% reduction in necrotic spots compared to control,[3],63%
2-hydroxyethyl(tridecyl)ammonium 3-chlorosalicylate,% reduction in necrotic spots compared to control,[3],64%
same,% reduction in necrotic spots compared to control,[6]; 10 mg/L,25%
same,% reduction in necrotic spots compared to control,[6]; 40 mg/L,46%
same,% reduction in necrotic spots compared to control,[6]; 80 mg/L,65%
2-fluoroethyl(trimethyl)ammonium 3-chlorosalicylate,% reduction in necrotic spots compared to control,[5],56%
same,% reduction in necrotic spots compared to control,[3],36%
2-hydroxyethyl(triethyl)ammonium 3-chlorosalicylate,% reduction in necrotic spots compared to control,[3],58%
same,% reduction in necrotic spots compared to control,[6]; 10 mg/L,15%
same,% reduction in necrotic spots compared to control,[6]; 40 mg/L,26%
same,% reduction in necrotic spots compared to control,[6]; 80 mg/L,37%
C[N+](C)(C)CCO.O=C([O-])c1cccc(I)c1O [choline 3-iodosalicylate],% reduction in necrotic spots compared to control,[5],77%
same,% reduction in necrotic spots compared to control,[3],69%
C[N+](C)(C)CCO.O=C([O-])c1cccc(Br)c1O [choline 3-bromosalicylate],% reduction in necrotic spots compared to control,[5],21%
same,% reduction in necrotic spots compared to control,[3],72%
2-hydroxyethyl(tridodecyl)ammonium 3-chlorosalicylate,% reduction in necrotic spots compared to control,[3],47%
same,% reduction in necrotic spots compared to control,[6]; 10 mg/L,59%
same,% reduction in necrotic spots compared to control,[6]; 40 mg/L,64%
same,% reduction in necrotic spots compared to control,[6]; 80 mg/L,89%
COc1ccccc1C(=O)[O-].C[N+](C)(C)CCO [choline 2-methoxybenzoate],% reduction in necrotic spots compared to control,[2]; 10 mg/L,54%
same,% reduction in necrotic spots compared to control,[2]; 40 mg/L,68%
same,% reduction in necrotic spots compared to control,[2]; 80 mg/L,67%
same,% reduction in necrotic spots compared to control,[3],44%
CC(=O)Oc1ccccc1C(=O)[O-].C[N+](C)(C)CCO [choline 2-acetoxybenzoate],% reduction in necrotic spots compared to control,[2]; 10 mg/L,25%
same,% reduction in necrotic spots compared to control,[2]; 40 mg/L,29%
same,% reduction in necrotic spots compared to control,[2]; 80 mg/L,69%
same,% reduction in necrotic spots compared to control,[3],52%
C[N+](C)(C)CCO.O=C([O-])c1cccc(F)c1O [choline 3-fluorosalicylate],% reduction in necrotic spots compared to control,[5],56%
same,% reduction in necrotic spots compared to control,[3],52%
C[N+](C)(C)CCO.O=C([O-])c1cc(I)ccc1O [choline 5-iodosalicylate],% reduction in necrotic spots compared to control,[5],35%
same,% reduction in necrotic spots compared to control,[3],65%
C[N+](C)(C)CCO.O=C([O-])c1cc(F)cc(F)c1O,% reduction in necrotic spots compared to control,[5],27%
same,% reduction in necrotic spots compared to control,[3],70%
C[N+](C)(C)CCO.O=C([O-])c1cc(Br)cc(Br)c1O,% reduction in necrotic spots compared to control,[5],38%
same,% reduction in necrotic spots compared to control,[3],72%
2-chloroethyl(trimethyl)ammonium 3-chlorosalicylate,% reduction in necrotic spots compared to control,[5],36%
same,% reduction in necrotic spots compared to control,[3],57%
COc1c(Cl)cccc1C(=O)[O-].C[N+](C)(C)CCO [choline 2-methoxy-3-chlorobenzoate],% reduction in necrotic spots compared to control,[2]; 10 mg/L,>10%
same,% reduction in necrotic spots compared to control,[2]; 40 mg/L,25%
same,% reduction in necrotic spots compared to control,[2]; 80 mg/L,39%
same,% reduction in necrotic spots compared to control,[3],49%
C[N+](C)(C)CCO.O=C([O-])c1cc(I)cc(I)c1O,% reduction in necrotic spots compared to control,[5],46%
same,% reduction in necrotic spots compared to control,[3],78%
CC(=O)Oc1c(Cl)cccc1C(=O)[O-].C[N+](C)(C)CCO [choline 2-acetoxy-3-chlorobenzoate],% reduction in necrotic spots compared to control,[2]; 10 mg/L,>10%
same,% reduction in necrotic spots compared to control,[2]; 40 mg/L,28%
same,% reduction in necrotic spots compared to control,[2]; 80 mg/L,35%
same,% reduction in necrotic spots compared to control,[3],45%
C[N+](C)(C)CCO.O=C([O-])c1c(I)ccc(Cl)c1O [choline 3-chloro-6-iodosalicylate],Reduction in necrotic spots (white patches) compared to control,[1],47%
2-hydroxyethyl(tributyl)ammonium 3-chlorosalicylate,% reduction in necrotic spots compared to control,[3],66%
same,% reduction in necrotic spots compared to control,[6]; 10 mg/L,26%
same,% reduction in necrotic spots compared to control,[6]; 40 mg/L,26%
same,% reduction in necrotic spots compared to control,[6]; 80 mg/L,30%
2-methoxyethyl(trimethyl)ammonium 3-chlorosalicylate,% reduction in necrotic spots compared to control,[4]; 10 mg/L,15%
same,% reduction in necrotic spots compared to control,[4]; 40 mg/L,26%
same,% reduction in necrotic spots compared to control,[4]; 80 mg/L,37%
same,% reduction in necrotic spots compared to control,[3],67%
CCOc1c(Cl)cccc1C(=O)[O-].C[N+](C)(C)CCO [choline 2-ethoxy-3-chlorobenzoate],% reduction in necrotic spots compared to control,[2]; 10 mg/L,24%
same,% reduction in necrotic spots compared to control,[2]; 40 mg/L,33%
same,% reduction in necrotic spots compared to control,[2]; 80 mg/L,39%
same,% reduction in necrotic spots compared to control,[3],43%
C[N+](C)(C)CCO.O=C([O-])c1c(F)ccc(Cl)c1O [choline 3-chloro-6-fluorosalicylate],Reduction in necrotic spots (white patches) compared to control,[1],45%
same,% reduction in necrotic spots compared to control,[2]; 10 mg/L,19%
same,% reduction in necrotic spots compared to control,[2]; 40 mg/L,28%
same,% reduction in necrotic spots compared to control,[2]; 80 mg/L,47%
2-bromoethyl(trimethyl)ammonium 3-chlorosalicylate,% reduction in necrotic spots compared to control,[5],95%
same,% reduction in necrotic spots compared to control,[3],54%
